According to ChEMBL document CHEMBL1151665, “Plant anticancer agents, XLI. Cardiac glycosides from Streblus asper” (1985):
Converted amounts (≈) assume the structure as drawn.

Tested on: KB
Experiment: Cytotoxicity against human KB cells
Conditions: read-out: ED50

| Compound | EC50 [µg/mL] |
| --- | --- |
| CO[C@H]1[C@H](O[C@H]2CC[C@]3(C=O)[C@H]4CC[C@]5(C)[C@@H](C6=CC(=O)OC6)CC[C@]5(O)[C@@H]4CC[C@]3(O)C2)O[C@H](C)[C@@H](O)[C@@H]1OC [MANSONIN] | 0.042 (≈ 0.0726 µM) |
| CO[C@H]1[C@H](O[C@H]2CC[C@]3(C=O)[C@H]4CC[C@]5(C)[C@@H](C6=CC(=O)OC6)CC[C@]5(O)[C@@H]4CC[C@]3(O)C2)O[C@H](C)[C@H](O)[C@@H]1OC [STREBLOSIDE] | 0.035 (≈ 0.0605 µM) |
